Assay results as given in patent publication US9926302B2, “Heteroaryl substituted heterocyclyl sulfones” (priority 2014, dated 2018).

molecular target: T1, Human CaV2.2 channels (Homo sapiens, UniProt Q00975); experiment: Fluorescence assay for CaV2.2 channels using potassium depolarization to induce channel opening (FLIPR, Fluo 4); type: cell-based; conditions: 3 μM test compound; alternative assay buffer 30 mM KCl (inactivated channel state); HEK293 cells stably expressing human CaV2.2
T1 construct: expressed in transfected cells
T1 sequence (P54289 947-1103): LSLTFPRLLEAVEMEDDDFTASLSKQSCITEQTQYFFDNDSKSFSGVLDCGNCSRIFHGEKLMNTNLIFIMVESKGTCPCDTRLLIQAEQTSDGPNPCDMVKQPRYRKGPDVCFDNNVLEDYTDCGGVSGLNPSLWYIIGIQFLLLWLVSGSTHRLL
T1 sequence (P54289 25-946): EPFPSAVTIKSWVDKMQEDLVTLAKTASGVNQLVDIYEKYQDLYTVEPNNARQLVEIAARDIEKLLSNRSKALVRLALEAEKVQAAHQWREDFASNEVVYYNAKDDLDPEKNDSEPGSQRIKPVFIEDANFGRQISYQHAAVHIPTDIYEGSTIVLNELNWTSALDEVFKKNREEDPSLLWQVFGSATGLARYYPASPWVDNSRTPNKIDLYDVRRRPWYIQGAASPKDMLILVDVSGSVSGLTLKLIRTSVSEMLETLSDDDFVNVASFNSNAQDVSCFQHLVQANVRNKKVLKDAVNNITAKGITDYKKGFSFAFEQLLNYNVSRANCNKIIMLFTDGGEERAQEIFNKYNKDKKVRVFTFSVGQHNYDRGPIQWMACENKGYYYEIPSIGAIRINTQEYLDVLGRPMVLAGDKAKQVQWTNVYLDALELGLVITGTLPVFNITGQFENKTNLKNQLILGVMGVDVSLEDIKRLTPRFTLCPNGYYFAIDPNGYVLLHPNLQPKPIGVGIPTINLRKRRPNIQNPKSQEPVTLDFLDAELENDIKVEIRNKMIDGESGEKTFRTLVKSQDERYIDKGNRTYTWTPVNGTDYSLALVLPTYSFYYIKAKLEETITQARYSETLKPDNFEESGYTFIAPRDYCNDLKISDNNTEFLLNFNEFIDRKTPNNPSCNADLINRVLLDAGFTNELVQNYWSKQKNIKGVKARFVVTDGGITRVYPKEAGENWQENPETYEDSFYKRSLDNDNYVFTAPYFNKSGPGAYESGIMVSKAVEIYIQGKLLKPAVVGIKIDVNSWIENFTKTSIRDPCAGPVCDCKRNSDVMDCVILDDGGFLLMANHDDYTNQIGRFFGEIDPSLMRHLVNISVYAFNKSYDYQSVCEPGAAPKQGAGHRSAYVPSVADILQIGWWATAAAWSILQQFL
T1 sequence (P54284 whole entry, further chain): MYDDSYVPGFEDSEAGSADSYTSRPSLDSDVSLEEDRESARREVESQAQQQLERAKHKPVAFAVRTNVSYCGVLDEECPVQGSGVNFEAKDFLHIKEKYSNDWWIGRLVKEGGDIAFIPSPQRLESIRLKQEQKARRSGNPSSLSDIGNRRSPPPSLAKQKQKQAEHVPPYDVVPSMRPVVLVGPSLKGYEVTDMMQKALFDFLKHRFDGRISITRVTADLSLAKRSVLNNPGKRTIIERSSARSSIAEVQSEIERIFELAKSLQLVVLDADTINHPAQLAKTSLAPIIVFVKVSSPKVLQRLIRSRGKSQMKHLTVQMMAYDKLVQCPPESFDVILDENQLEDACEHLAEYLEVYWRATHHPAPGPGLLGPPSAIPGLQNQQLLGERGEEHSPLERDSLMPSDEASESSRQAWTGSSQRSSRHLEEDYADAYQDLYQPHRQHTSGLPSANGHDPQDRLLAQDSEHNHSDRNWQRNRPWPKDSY
T1 sequence (Q00975 whole entry): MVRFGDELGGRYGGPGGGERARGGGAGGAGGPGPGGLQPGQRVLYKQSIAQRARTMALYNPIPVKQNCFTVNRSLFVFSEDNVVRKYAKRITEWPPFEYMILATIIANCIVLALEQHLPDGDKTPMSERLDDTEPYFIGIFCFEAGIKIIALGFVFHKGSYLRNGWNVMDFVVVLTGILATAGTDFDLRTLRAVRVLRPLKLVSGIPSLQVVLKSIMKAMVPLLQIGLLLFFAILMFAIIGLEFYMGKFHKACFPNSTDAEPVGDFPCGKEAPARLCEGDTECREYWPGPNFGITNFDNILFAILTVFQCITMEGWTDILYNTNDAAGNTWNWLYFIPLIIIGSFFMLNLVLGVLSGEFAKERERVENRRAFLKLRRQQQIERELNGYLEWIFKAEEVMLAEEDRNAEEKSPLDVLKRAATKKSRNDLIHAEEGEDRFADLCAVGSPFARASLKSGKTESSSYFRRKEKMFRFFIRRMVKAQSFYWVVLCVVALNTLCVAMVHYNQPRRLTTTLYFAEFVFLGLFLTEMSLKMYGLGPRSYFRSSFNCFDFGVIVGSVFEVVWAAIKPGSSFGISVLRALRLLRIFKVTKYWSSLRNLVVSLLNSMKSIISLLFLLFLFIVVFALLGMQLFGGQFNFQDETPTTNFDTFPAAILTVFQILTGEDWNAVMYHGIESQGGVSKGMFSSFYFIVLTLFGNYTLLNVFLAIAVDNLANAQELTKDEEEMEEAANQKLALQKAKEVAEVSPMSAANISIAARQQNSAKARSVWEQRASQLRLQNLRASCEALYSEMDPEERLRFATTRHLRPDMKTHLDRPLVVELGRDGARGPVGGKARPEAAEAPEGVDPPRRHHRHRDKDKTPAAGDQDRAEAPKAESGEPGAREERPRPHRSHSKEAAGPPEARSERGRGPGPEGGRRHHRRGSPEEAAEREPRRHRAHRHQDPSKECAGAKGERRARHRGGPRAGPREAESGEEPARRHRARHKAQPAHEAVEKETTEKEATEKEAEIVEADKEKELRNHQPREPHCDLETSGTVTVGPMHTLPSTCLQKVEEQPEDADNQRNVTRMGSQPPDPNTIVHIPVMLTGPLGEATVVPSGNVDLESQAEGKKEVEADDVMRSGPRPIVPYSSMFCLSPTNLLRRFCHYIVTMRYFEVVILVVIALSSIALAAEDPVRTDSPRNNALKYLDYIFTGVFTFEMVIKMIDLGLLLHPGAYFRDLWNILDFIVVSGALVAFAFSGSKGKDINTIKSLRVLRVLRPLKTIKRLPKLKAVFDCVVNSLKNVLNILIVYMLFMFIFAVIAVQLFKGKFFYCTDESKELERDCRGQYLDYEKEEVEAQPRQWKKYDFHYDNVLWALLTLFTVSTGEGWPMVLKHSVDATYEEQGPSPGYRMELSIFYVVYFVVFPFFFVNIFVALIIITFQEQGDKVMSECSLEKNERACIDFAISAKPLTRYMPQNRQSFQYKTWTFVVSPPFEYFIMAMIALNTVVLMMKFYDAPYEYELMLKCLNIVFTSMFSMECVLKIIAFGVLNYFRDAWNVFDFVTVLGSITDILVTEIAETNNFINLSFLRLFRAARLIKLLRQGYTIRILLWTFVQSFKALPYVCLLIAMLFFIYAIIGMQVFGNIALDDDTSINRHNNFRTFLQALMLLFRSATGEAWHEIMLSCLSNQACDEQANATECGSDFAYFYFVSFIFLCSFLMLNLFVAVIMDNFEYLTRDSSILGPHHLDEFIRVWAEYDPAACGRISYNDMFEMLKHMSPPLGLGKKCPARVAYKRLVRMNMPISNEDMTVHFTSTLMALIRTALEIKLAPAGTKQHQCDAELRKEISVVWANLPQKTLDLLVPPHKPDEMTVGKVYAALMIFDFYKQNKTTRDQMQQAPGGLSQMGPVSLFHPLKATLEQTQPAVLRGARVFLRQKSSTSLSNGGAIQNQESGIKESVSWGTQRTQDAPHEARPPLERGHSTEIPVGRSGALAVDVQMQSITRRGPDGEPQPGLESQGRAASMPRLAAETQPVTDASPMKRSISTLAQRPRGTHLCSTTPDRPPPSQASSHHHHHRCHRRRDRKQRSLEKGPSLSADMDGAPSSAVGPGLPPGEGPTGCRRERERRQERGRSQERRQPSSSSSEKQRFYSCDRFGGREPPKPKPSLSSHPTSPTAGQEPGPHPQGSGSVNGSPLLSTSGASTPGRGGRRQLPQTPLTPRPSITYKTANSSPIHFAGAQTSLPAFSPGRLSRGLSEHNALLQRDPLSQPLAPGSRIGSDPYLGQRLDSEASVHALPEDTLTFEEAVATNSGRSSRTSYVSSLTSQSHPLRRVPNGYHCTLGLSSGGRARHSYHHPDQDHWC
Excerpt: In the process, the Ca^2+ influx is quantified in the FLIPR assay with the aid of a Ca^2+-sensitive dye (type Fluo-4, Molecular Probes Europe BV, Leiden, the Netherlands) in a fluorescent imaging plate reader (FLIPR 3, Molecular Devices, Sunnyvale, USA), as described hereinafter.
2.1 Fluorescence Assay for CaV2.2 Channels Using Potassium Depolarization to Induce Channel Opening
Human CaV2.2 channels were stably expressed in HEK293 cells together with alpha2-delta and beta subunits of voltage gated calcium channels. In addition, an inwardly rectifying potassium channel (Kir2.3) was stably expressed in these cells to augment control of the cell membrane potential by the concentration of extracellular potassium ions. Raise of the extracellular potassium concentration leads to depolarization of the membrane potential and thus regulates the voltage dependent state of CaV2.2 channels. For preparation, cells were seeded in black poly-D-lysine coated 96-well plates (Becton Dickinson, Biocoat 4640) in 100 μL medium [500 mL DMEM/F-12 plus Glutamax (Invitrogen 31331-093) plus 5.5 mL MEM NEAA 100× (Invitrogen 11140-035) plus 50 mL FBS decomplemented (Invitrogen 10270-106) plus 200 μg/mL Geneticin (Invitrogen 10131-027) plus 50 μg/mL Hygromycin B (Invitrogen 10687-010) plus 2 μg/mL Blasticidin (anti-bl5b Invivo-Gen) plus 0.2 μg/mL Puromycin (A 11138-03)] at a cell density of 30.000 cells per well. Plates were incubated at 37° C. (5% CO2) for 20 to 23 h. On the day of experiment medium was discarded and cells were loaded with Fluo 4 by addition of 100 μL of basic assay buffer (10 mM HEPES, 1 mM KCl, 149 mM NaCl, 0.8 mM CaCl2, 1.7 mM MgCl2, 10 mM Glucose, 0.1% BSA. pH 7.4) containing 2 μM Fluo 4 (Molecular Probes; F-14201), 0.01% pluronic acid (Molecular Probes; P-6866) and 2.5 mM probenecid (Molecular Probes; P36400). Cells were incubated in the dark at 25° C. for 60 min. Then dye containing buffer was discarded and 100 μL basic (1 mM KCl) or alternative (30 mM KCl) assay buffer was added. The alternative assay buffer contained altered concentrations of KCl (30 mM) and NaCl (120 mM) and was used in order to promote the inactivated channel state. After that 25 μL of basic or alternative assay buffer with or without test compound were added and cells were incubated again in the dark at 25° C. for 15 min. Fluorescence intensity was measured on a FLIPR 3 instrument (Molecular Devices Corp., Sunnyvale, Calif.) with excitation at 480 nm and emission at 535 nm. After continuously reading fluorescence for 30 sec, 50 μL of basic assay buffer containing 210 mM KCl (NaCl omitted) were added for depolarization. Peak fluorescent signal intensity was determined and the amplitude of the peak signal, normalized to base line, was used to measure channel inhibition by test compounds.

Row | SMILES | Activity Category: %-Inhib (CaV2.2) @3 μM @30 mM KCl
1 | CC1(S(=O)(=O)c2cccc(C(F)(F)F)c2)CCOC(COc2ccc(C3CC3)nc2)C1 (single isomer, unassigned) [SC-117, 2-Cyclopropyl-5-[[4-methyl-4-[[3-(trifluoromethyl)phenyl]sulfonyl]-tetrahydro-pyran-2-yl]-methoxy]-pyridine] | B (%-Inhibition >75% up to ≤95%)
2 | CCC1(S(=O)(=O)c2cccc(C(F)(F)F)c2)CCOC(c2ccc(C(F)(F)F)cn2)C1 (stereo not drawn) [SC-108, 2-[4-Ethyl-4-[[3-(trifluoromethyl)phenyl]sulfonyl]-tetrahydro-pyran-2-yl]-5-(trifluoromethyl)-pyridine] | A (%-Inhibition >95%)
3 | CC1(S(=O)(=O)c2cccc(C(F)(F)F)c2)CCOC(c2ccc(Cl)cn2)C1 (stereo not drawn) [SC-244, 5-Chloro-2-[4-methyl-4-[[3-(trifluoromethyl)phenyl]sulfonyl]-tetrahydro-pyran-2-yl]-pyridine] | B (%-Inhibition >75% up to ≤95%)
4 | CC1(S(=O)(=O)c2cccc(OC(F)F)c2)CCOC(c2ncc(S(C)(=O)=O)cc2Cl)C1 (stereo not drawn) [SC-437, 3-Chloro-2-[4-[[3-(difluoro-methoxy)-phenyl]sulfonyl]-4-methyl-tetrahydro-pyran-2-yl]-5-methylsulfonyl-pyridine] | B (%-Inhibition >75% up to ≤95%)
5 | CC1(S(=O)(=O)c2cccc(C(F)(F)F)c2)CCOC(c2nnc(C(F)F)o2)C1 (single isomer, unassigned) [SC-123, 2-(Difluoro-methyl)-5-[4-methyl-4-[[3-(trifluoromethyl)phenyl]sulfonyl]-tetrahydro-pyran-2-yl]-[1,3,4]oxadiazole] | B (%-Inhibition >75% up to ≤95%)
6 | CC1(S(=O)(=O)c2cccc(C(F)(F)F)c2)CCOC(c2ccc(S(C)(=O)=O)nc2)C1 (stereo not drawn) [SC-336, 2-Methylsulfonyl-5-[4-methyl-4-[[3-(trifluoromethyl)phenyl]sulfonyl]-tetrahydro-pyran-2-yl]-pyridine] | C (%-Inhibition >40% up to ≤75%)
7 | CC1(S(=O)(=O)c2cccc(C(F)(F)F)c2)CCOC(c2nnc(C3CC3)o2)C1 (single isomer, unassigned) [SC-129, 2-Cyclopropyl-5-[4-methyl-4-[[3-(trifluoromethyl)phenyl]sulfonyl]-tetrahydro-pyran-2-yl]-[1,3,4]oxadiazole] | C (%-Inhibition >40% up to ≤75%)
8 | CC1(S(=O)(=O)c2cccc(C(F)(F)F)c2)CCOC(c2cncc(S(C)(=O)=O)c2)C1 (stereo not drawn) [SC-101, 3-Methylsulfonyl-5-[4-methyl-4-[[3-(trifluoromethyl)phenyl]sulfonyl]-tetrahydro-pyran-2-yl]-pyridine] | B (%-Inhibition >75% up to ≤95%)
9 | CC1(S(=O)(=O)c2cccc(C(F)(F)F)c2)CCOC(c2ncc(S(C)(=O)=O)cc2OC(F)F)C1 (stereo not drawn) [SC-269, 3-(difluoromethoxy)-2-(4-methyl-4-((3-(trifluoromethyl)phenyl)sulfonyl)tetrahydro-2H-pyran-2-yl)-5-(methylsulfonyl)pyridine] | A (%-Inhibition >95%)
10 | CC1(S(=O)(=O)c2cccc(C(F)(F)F)c2)CCOC(c2cnc(C3CC3)nc2)C1 (stereo not drawn) [SC-204, 2-Cyclopropyl-5-[4-methyl-4-[[3-(trifluoromethyl)phenyl]sulfonyl]-tetrahydro-pyran-2-yl]-pyrimidine] | B (%-Inhibition >75% up to ≤95%)

same assay, conditions: HEK293, 3 μM test compound; alternative assay buffer 30 mM KCl (inactivated channel state); HEK293 cells stably expressing human CaV2.2; read-out: Activity Category: %-Inhib (CaV2.2) @3 μM @30 mM KCl

Row | SMILES | inhibition at 3 µM [%]
11 | CC1(S(=O)(=O)c2cccc(C(F)(F)F)c2)CCOC(c2ncc(C3CC3)cc2Cl)C1 (stereo not drawn) [SC-425, 3-Chloro-5-cyclopropyl-2-[4-methyl-4-[[3-(trifluoromethyl)phenyl]sulfonyl]-tetrahydro-pyran-2-yl]-pyridine] | > 95
12 | CC1(S(=O)(=O)c2cccc(C(F)(F)F)c2)CCOC(c2ncc(OC(F)F)cc2S(C)(=O)=O)C1 (stereo not drawn) [SC-266, 5-(difluoromethoxy)-2-(4-methyl-4-((3-(trifluoromethyl)phenyl)sulfonyl)tetrahydro-2H-pyran-2-yl)-3-(methylsulfonyl)pyridine] | > 95
13 | CC1(S(=O)(=O)c2cccc(C(F)(F)F)c2)CCOC(c2noc(C3CC3)n2)C1 (single isomer, unassigned) [SC-110, 5-Cyclopropyl-3-[4-methyl-4-[[3-(trifluoromethyl)phenyl]sulfonyl]-tetrahydro-pyran-2-yl]-[1,2,4]oxadiazole] | 75 to 95
14 | CC1(S(=O)(=O)c2cccc(C(F)(F)F)c2)CCOC(c2ncc(S(C)(=O)=O)cc2F)C1 (single isomer, unassigned) [SC-119, 3-Fluoro-5-methylsulfonyl-2-[4-methyl-4-[[3-(trifluoromethyl)phenyl]sulfonyl]-tetrahydro-pyran-2-yl]-pyridine] | 75 to 95
15 | CC1(S(=O)(=O)c2cccc(C(F)(F)F)c2)CCOC(c2cncc(C(F)(F)F)c2)C1 (single isomer, unassigned) [SC-115, 3-[4-Methyl-4-[[3-(trifluoromethyl)phenyl]sulfonyl]-tetrahydro-pyran-2-yl]-5-(trifluoromethyl)-pyridine] | 75 to 95
16 | CC1(S(=O)(=O)c2cccc(C(F)(F)F)c2)CCOC(c2ncc(S(C)(=O)=O)cc2C(F)(F)F)C1 (stereo not drawn) [SC-222, 5-Methylsulfonyl-2-[4-methyl-4-[[3-(trifluoromethyl)phenyl]sulfonyl]-tetrahydro-pyran-2-yl]-3-(trifluoromethyl)-pyridine] | 75 to 95
17 | Cn1nc(C(F)(F)F)cc1C1CC(C)(S(=O)(=O)c2cccc(C(F)(F)F)c2)CCO1 (racemic) [SC-344, 1-Methyl-5-[4-methyl-4-[[3-(trifluoromethyl)phenyl]sulfonyl]-tetrahydro-pyran-2-yl]-3-(trifluoromethyl)-1H-pyrazole] | 75 to 95
18 | CCC1(S(=O)(=O)c2cccc(C(F)(F)F)c2)CCOC(c2nc(C(F)(F)F)no2)C1 (stereo not drawn) [SC-200, 5-[4-Ethyl-4-[[3-(trifluoromethyl)phenyl]sulfonyl]-tetrahydro-pyran-2-yl]-3-(trifluoromethyl)-[1,2,4]oxadiazole] | 75 to 95
19 | CC1(S(=O)(=O)c2cccc(C(F)(F)F)c2)CCOC(c2cncc(C3CC3)c2)C1 (stereo not drawn) [SC-325, 3-Cyclopropyl-5-[4-methyl-4-[[3-(trifluoromethyl)phenyl]sulfonyl]-tetrahydro-pyran-2-yl]-pyridine] | > 95
20 | CC1(S(=O)(=O)c2cccc(C(F)(F)F)c2)CCOC(c2ccc(N3CCCC3)nc2)C1 (racemic) [SC-406, 5-[4-Methyl-4-[[3-(trifluoromethyl)phenyl]sulfonyl]-tetrahydro-pyran-2-yl]-2-pyrrolidin-1-yl-pyridine] | > 95
21 | CC(C)c1cccc(S(=O)(=O)C2(C)CCOC(c3ncc(S(C)(=O)=O)cc3Cl)C2)c1 (stereo not drawn) [SC-446, 3-Chloro-2-[4-[(3-isopropyl-phenyl)sulfonyl]-4-methyl-tetrahydro-pyran-2-yl]-5-methylsulfonyl-pyridine] | 75 to 95
22 | CCC1(S(=O)(=O)c2cccc(C(F)(F)F)c2)CCOC(c2nnc(C(F)(F)F)o2)C1 (racemic) [SC-242, 2-[4-Ethyl-4-[[3-(trifluoromethyl)phenyl]sulfonyl]-tetrahydro-pyran-2-yl]-5-(trifluoromethyl)-[1,3,4]oxadiazole] | 40 to 75
23 | CC1(S(=O)(=O)c2cccc(C(F)(F)F)c2)CCOC(c2ccc(-n3cncn3)nc2)C1 (racemic) [SC-407, 5-[4-Methyl-4-[[3-(trifluoromethyl)phenyl]sulfonyl]-tetrahydro-pyran-2-yl]-2-(1H-[1,2,4]triazol-1-yl)-pyridine] | 75 to 95
24 | CCC1(S(=O)(=O)c2cccc(C(F)(F)F)c2)CCOC(c2cnc(C3CC3)cn2)C1 (stereo not drawn) [SC-332, 2-Cyclopropyl-5-[4-ethyl-4-[[3-(trifluoromethyl)phenyl]sulfonyl]-tetrahydro-pyran-2-yl]-pyrazine] | 75 to 95
